Tests used:
Assay type in all cases: cell-based
[1] = tested on: BaF3 cells expressing EGFR L858R-T790M-L792H; test: Ba/F3 EGFR cell viability (CellTiter-Glo), L858R-T790M-L792H; details: Mus musculus, read-out: CTGlo (GI50)
Description: RPMI 1640 media, cell culture flasks, and 384-well microplates were purchased from VWR (Radnor, PA, USA). Fetal bovine serum (FBS) was purchased from Life Technologies (Carlsbad, CA, USA) and CellTiter-Glo® was purchased from Promega (Madison, WI, USA). The Ba/F3 parental cell line was purchased from CrownBio (Santa Clara, CA). BaF3 cell lines ectopically expressing the EGFR mutations L858R, L858R-T790M, L858R-C797S, and L858R-T790M-C797S were purchased from CrownBio and EGFR mutations L858R-L718Q, L858R-T790M-L718Q, L858R-L792H, and L858R-T790M-L792H, were purchased from Signosis (Santa Clara, CA).
Cell viability was assessed based on the quantification of ATP using the CellTiter-Glo® assay (Promega, Madison, WI, USA). To determine the effect of compounds on cell viability, all Ba/F3 cell lines were plated at a cell density of 2000 cells/well in 384-well plates using RPMI 1640+10% FBS and treated with compounds of interest using a 10-point half-log dilution series in duplicate for 72 hours, with the highest dose set at […]. CellTiter-Glo® reagent was then added and luminescence signals were measured using an EnVision™ Multimode plate reader (Perkin Elmer, Santa Clara, CA). For data normalization, cells untreated with the test compounds at Time=72 hours were set to 100% (equivalent to maximal cell growth after 72 hours); cells untreated with the test compounds at Time=0 hours were set to 0% (equivalent to cytostasis); and media-only wells were set to −100% (equivalent to complete cytotoxicity). % Viability was determined by normalizing the signal with positive and DMSO treated negative controls on the same microtiter plate. The half-maximal inhibition of cell growth (GI50) is computed from where the fitted curve crosses 50% while the half-maximal lethal dose (LD50) is computed from where the fitted curve crosses −50%.

[2] = target: T1, pY1068 EGFR L858R-T790M-C797S (Homo sapiens, UniProt P00533, C797S/L858R/T790M); test: Phospho-EGFR (pY1068) inhibition HTRF, NCI-H1975+CS; details: 6 hours, read-out: pEGFR IC50
T1 construct: generated using CRISPR technology to introduce the additional C797S mutation by Horizon Discovery; host or cells: NCI-H1975+CS (CRISPR knock-in of C797S)
Description: (§1) NCI-H1975 (harboring EGFR heterozygous L858R-T790M mutations) and NCI-H3255 (harboring EGFR heterozygous L858R mutation) were purchased from ATCC and NCI, respectively. NCI-H1975+CS (harboring EGFR heterozygous L858R-T790M-C797S mutations) was generated using CRISPR technology to introduce the additional C797S mutation by Horizon Discovery. A431 (harboring EGFR wildtype) was purchased from ATCC. RPMI 1640 no-phenol red medium and fetal bovine serum (FBS) were purchased from Gibco (Grand Island, NY, USA). Cell culture flasks and 384-well microplates were acquired from VWR (Radnor, PA, USA). Phosphorylated (pY1068) EGFR and Total EGFR (using L858R-specific detection antibody and pan-EGFR antibody for EGFR mutant cell lines and EGFR wild-type cell lines, respectively) HTRF assay kits were purchased from Cisbio (Bedford, MA, USA).
(§2) Degradation of EGFR protein containing L858R mutation or wild-type was determined based on quantification of FRET signal using a Total EGFR (L858R-specific or pan-EGFR detecting) HTRF assay kit. Phospho-EGFR (pEGFR) inhibition was determined based on quantification of FRET signal using a pY1068 EGFR HTRF assay kit. In separate assay plates, test compounds were added to the 384-well plate from a top concentration of 10 μM with 11 points, half log titration in duplicates. For each assay, 12.5 uL of cells suspended in assay media (RPMI 1640 no-phenol red medium+10% FBS) at cell densities indicated for each cell line in Table 8 below were dispensed using a multi-channel pipette to 384-well low volume white HTRF microplates containing a duplicate concentration range of test compounds and DMSO controls. The plates were kept at 37° C. with 5% CO2 for 6 hours and then incubated with either phospho EGFR or Total EGFR HTRF detection antibodies according to the cell line and EGFR mutant being assayed. Cells treated in the absence of the test compound were the negative control. Positive control was set by wells containing all reagents but no cells. FRET signal was acquired on EnVision™ Multilabel Reader (PerkinElmer, Santa Clara, CA, USA). Compound concentration that achieves 50% degradation and inhibition was reported as DC50 and IC50, respectively.

[3] = tested on: BaF3 cells expressing wild-type EGFR; test: Ba/F3 EGFR cell viability (CellTiter-Glo), wild-type EGFR; details: Mus musculus, Ba/F3 WT EGFR, read-out: CTGlo (GI50)
pY1068 EGFR L858R = target: T2, pY1068 EGFR L858R (Homo sapiens, UniProt P00533, L858R); test: Phospho-EGFR (pY1068) inhibition HTRF, NCI-H3255; details: 6 hours, read-out: pEGFR IC50
T2 construct: NCI-H3255 (harboring EGFR heterozygous L858R mutation); host or cells: NCI-H3255
Description: as §1, §2

T1 sequence (P00533 25-1210 T790M/C797S/L858R): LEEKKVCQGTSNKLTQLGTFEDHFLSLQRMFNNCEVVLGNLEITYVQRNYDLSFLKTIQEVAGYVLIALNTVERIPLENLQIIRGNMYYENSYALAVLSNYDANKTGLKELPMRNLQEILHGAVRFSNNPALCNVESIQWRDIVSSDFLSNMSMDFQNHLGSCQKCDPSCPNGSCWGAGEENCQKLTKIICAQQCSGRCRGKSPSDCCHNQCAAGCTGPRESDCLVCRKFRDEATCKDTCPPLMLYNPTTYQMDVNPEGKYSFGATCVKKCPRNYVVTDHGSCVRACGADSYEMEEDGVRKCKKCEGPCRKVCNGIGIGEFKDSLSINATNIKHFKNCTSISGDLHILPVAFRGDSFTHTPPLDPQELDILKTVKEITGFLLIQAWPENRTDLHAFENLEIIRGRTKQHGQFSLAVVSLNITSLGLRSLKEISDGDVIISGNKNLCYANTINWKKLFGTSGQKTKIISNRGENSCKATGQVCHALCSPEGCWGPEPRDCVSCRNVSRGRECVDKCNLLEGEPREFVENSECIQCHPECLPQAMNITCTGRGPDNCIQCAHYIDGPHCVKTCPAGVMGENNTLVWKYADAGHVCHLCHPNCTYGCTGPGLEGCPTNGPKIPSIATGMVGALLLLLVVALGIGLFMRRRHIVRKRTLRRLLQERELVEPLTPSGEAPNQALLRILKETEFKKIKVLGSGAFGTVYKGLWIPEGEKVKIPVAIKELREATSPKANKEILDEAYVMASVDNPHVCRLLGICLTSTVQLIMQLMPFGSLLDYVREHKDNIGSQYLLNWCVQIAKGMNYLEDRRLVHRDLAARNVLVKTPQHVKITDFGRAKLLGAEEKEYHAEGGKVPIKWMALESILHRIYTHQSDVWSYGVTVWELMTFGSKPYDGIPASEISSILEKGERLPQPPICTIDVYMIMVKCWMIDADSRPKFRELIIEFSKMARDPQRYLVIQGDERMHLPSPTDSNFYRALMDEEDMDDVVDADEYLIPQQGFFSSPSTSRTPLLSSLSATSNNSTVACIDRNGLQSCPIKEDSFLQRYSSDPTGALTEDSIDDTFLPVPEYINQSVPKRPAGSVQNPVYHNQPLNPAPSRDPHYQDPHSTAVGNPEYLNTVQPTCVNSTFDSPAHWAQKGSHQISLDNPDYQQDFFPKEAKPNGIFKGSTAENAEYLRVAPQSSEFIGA
T2 sequence (P00533 25-1210 L858R): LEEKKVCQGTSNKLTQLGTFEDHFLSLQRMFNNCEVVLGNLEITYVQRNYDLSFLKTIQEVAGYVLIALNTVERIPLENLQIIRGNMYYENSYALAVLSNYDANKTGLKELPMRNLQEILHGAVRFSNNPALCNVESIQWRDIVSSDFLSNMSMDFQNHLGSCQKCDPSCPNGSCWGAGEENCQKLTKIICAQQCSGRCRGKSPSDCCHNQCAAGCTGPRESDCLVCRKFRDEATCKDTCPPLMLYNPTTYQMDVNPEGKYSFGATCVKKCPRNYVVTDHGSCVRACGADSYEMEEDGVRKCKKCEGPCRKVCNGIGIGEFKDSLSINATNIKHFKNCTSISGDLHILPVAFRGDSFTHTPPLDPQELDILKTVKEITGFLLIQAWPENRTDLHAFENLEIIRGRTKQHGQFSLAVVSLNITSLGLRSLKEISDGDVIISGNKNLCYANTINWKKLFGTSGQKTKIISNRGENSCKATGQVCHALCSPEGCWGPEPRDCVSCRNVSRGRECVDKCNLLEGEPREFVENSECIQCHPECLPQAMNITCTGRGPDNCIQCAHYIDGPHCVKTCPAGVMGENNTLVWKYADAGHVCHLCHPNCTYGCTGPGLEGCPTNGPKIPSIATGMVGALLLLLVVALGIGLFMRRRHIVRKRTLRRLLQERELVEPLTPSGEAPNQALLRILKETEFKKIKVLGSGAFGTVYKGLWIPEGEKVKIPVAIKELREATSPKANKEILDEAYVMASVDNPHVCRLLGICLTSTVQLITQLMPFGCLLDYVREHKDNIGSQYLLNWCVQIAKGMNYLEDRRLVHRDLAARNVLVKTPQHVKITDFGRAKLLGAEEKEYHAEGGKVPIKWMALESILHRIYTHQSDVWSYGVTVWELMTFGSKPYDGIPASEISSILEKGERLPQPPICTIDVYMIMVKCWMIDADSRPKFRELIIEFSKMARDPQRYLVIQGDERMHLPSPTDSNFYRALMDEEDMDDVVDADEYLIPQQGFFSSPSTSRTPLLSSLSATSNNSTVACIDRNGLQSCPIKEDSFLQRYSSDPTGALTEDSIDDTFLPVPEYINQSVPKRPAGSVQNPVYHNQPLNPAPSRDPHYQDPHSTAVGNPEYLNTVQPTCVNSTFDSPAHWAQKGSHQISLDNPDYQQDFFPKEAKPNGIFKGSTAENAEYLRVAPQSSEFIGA

| Structure (SMILES) | GI50 [1] | IC50 [2] | GI50 [3] | IC50 (pY1068 EGFR L858R) |
| --- | --- | --- | --- | --- |
| O=C1CC[C@H](Nc2ccc(N3CCC(O)(CC(=O)N4CC5(C4)CN(c4ccc(-c6cc(F)c7c(c6)C(=O)N(C(C(=O)Nc6nccs6)c6ncn8c6CCC8)C7)cc4)C5)CC3)c(F)c2)C(=O)N1 (stereo partly drawn) [Compound 1, 2-(6,7-dihydro-5H-pyrrolo[1,2-c]imidazol-1-yl)-2-[6-[4-[2-[2-[1-[4-[[(3S)-2,6-dioxo-3-piperidyl]amino]-2-fluoro-phenyl]-4-hydroxy-4-piperidyl]acetyl]-2,6-diazaspiro[3.3]heptan-6-yl]phenyl]-4-fluoro-1-oxo-isoindolin-2-yl]-N-thiazol-2-yl-acetamide] | 21 nM | 10 nM | 1620 nM | 5 nM |
| Cn1nc(N2CCC(=O)NC2=O)c2ccc([C@H]3CCN(CC(=O)N4CC5(C4)CN(c4ccc(-c6cc(F)c7c(c6)C(=O)N(C(C(=O)Nc6nccs6)c6ncn8c6CCC8)C7)cc4)C5)CC3(F)F)cc21 (stereo partly drawn) [Compound 2, 2-(6,7-dihydro-5H-pyrrolo[1,2-c]imidazol-1-yl)-2-[6-[4-[2-[2-[(4R)-4-[3-(2,4-dioxohexahydropyrimidin-1-yl)-1-methyl-indazol-6-yl]-3,3-difluoro-1-piperidyl]acetyl]-2,6-diazaspiro[3.3]heptan-6-yl]phenyl]-4-fluoro-1-oxo-isoindolin-2-yl]-N-thiazol-2-yl-acetamide] | 9 nM | 29 nM | 310 nM | 8 nM |

Source: patent US20240158418A1 (C4 Therapeutics, Inc., priority 2021, published 2024)
